Laboratory results reported in PMC3468358, “Clinical, virological and biochemical evidence supporting the association of HIV-1 reverse transcriptase polymorphism R284K and thymidine analogue resistance mutations M41L, L210W and T215Y in patients failing tenofovir/emtricitabine therapy” (Retrovirology, 2012).

Legend:
[1] = tested on: HIV-1 construct with RT M41L/L210W/T215Y; experiment: Phenotypic drug susceptibility of recombinant HIV-1 in MT-4 cells (tetrazolium-based colorimetric method); type: cell-based
Description: (§1) Site-directed mutagenesis was carried out with the Quik-Change Site-Directed Mutagenesis kit (Stratagene) by following the manufacturer’s instructions, and using plasmids p66RTB [64] or p66RTB(LY) as templates. The plasmid p66RTB contains the nucleotide sequence encoding for the 66-kDa subunit of HIV-1BH10 RT, and p66RTB(LY) encodes a p66 derivative with thymidine analogue resistance mutations M41L and T215Y. […] All introduced mutations were confirmed by DNA sequencing. Recombinant HIV-1 was obtained as previously described. […] MT-4 cells were used to propagate the recombinant virus. The nucleotide sequence of the RT-coding region was fully determined in order to check for reversions or undesired mutations. MT-4 cells and the deleted HXB2-D clone were obtained from the AIDS Reagent Program (Medical Research Council).
(§2) Viable cells at different drug concentrations were quantified with a tetrazolium-based colorimetric method. Replication kinetics of wild-type and mutant viruses were assayed by infecting peripheral blood mononuclear cells (PBMCs) (mixed from two healthy donors), previously stimulated with phytohemagglutinin and interleukin 2 [26]. In these assays, viral replication rates were obtained from the amounts of HIV-1 p24^Gag antigen produced during the exponential phase of viral growth, as described previously. Growth competition assays in MT-4 cells were carried out as previously described, in the absence and in the presence of tenofovir disoproxil fumarate at concentrations ranging from 5 to 80 nM. A multiplicity of infection of 0.001 was used and competing viruses were mixed at a 50:50 ratio. RT inhibitors were obtained from the NIH AIDS Research and Reference Reagent Program.

[2] = tested on: wild-type HXB2 virus carrying the RT sequence of BH10; experiment: as above; type: cell-based; conditions: average ± SD of at least three tests
Description: as §1, §2

[3] = tested on: HIV-1 construct with RT R284K; experiment: as above; type: cell-based
Description: as §1, §2

[4] = tested on: HIV-1 construct with RT M41L/L210W/T215Y/R284K; experiment: as above; type: cell-based
Description: as §1, §2

WT HIV-1 RT (BH10) [5] = target: T1, WT HIV-1 RT (BH10) (Human immunodeficiency virus type 1 group M subtype B, UniProt P03366); experiment: Inhibition constants under steady-state nucleotide incorporation conditions; type: biochemical; conditions: competition with dTTP, template-primer D38/25PGA, read-out: Ki(AZTTP)
T1 construct: His6 (C); made in house; host or cells: E. coli XL1 Blue
Description: (§3) RTs were expressed in E. coli XL1 Blue and purified as p66/p51 heterodimers by ionic exchange, followed by immobilized metal affinity chromatography on Ni^2+-nitriloacetic acid-agarose. The p66 subunit was obtained with a His6 tag at its C-terminal end to facilitate its purification by metal affinity chromatography. Purity of the enzymes was assessed by SDS-polyacrylamide gel electrophoresis and RT concentrations were determined by active site titration as described.
(§4) Nucleotide incorporation reactions under steady-state conditions were carried out as previously described. However, in the preincubation buffer, active RT and template-primers D38/25PGA or D38T/25PGA were present at concentrations of 7–20 nM and 60 nM, respectively. Elongation rates were determined with dTTP concentrations ranging from 0.05 to 20 μM or with dATP concentrations ranging from 12 nM to 10 μM, using reaction volumes of 20 μl. Catalytic constants kcat and Km were determined after fitting the elongation data to the Michaelis–Menten equation as described. Inhibition constants (Ki) for AZTTP and tenofovir-DP were determined under the conditions used for obtaining the catalytic constants of dTTP and dATP incorporation, respectively. In order to distinguish between dTTP and AZTTP, elongation reactions were carried out under conditions that allowed the incorporation of two nucleotides (i.e. T at position +1 and A at position +2). For this purpose dATP was supplied at 1 μM in all assays. The competition between tenofovir-DP and dATP was analyzed with template-primer D38T/25PGA. Assays were carried out with variable concentrations of dATP (as indicated above) and 2 μM dTTP to facilitate further extension of the primer when the inhibitor was not incorporated at position +1 of the DNA primer. Data were analyzed by using Lineweaver-Burk plots. Nucleotide incorporation reactions under pre-steady-state conditions were carried out with template-primer D38/25PGA, as described.

[6] = target: T2, HIV-1 RT M41L/L210W/T215Y (Human immunodeficiency virus type 1 group M subtype B, UniProt P03366, L809W/M640L/T814Y); experiment: as above; type: biochemical
T2 construct: His6 (C); made in house; host or cells: E. coli XL1 Blue
Description: as §3, §4

[7] = target: T3, HIV-1 RT M41L/L210W/T215Y/R284K (Human immunodeficiency virus type 1 group M subtype B, UniProt P03366, L809W/M640L/R883K/T814Y); experiment: as above; type: biochemical
T3 construct: His6 (C); made in house; host or cells: E. coli XL1 Blue
Description: as §3, §4

WT HIV-1 RT (BH10) [8] = target: T1, WT HIV-1 RT (BH10); experiment: Steady-state kinetics of nucleotide incorporation; type: biochemical; conditions: D38/25PGA for dTTP, D38T/25PGA for dATP
Description: as §3, §4

[9] = target: T2, HIV-1 RT M41L/L210W/T215Y; experiment: Steady-state kinetics of nucleotide incorporation; type: biochemical; conditions: D38/25PGA for dTTP, D38T/25PGA for dATP
Description: as §3, §4

[10] = target: T3, HIV-1 RT M41L/L210W/T215Y/R284K; experiment: Steady-state kinetics of nucleotide incorporation; type: biochemical; conditions: D38/25PGA for dTTP, D38T/25PGA for dATP
Description: as §3, §4

[11] = target: T2, HIV-1 RT M41L/L210W/T215Y; experiment: Single-nucleotide incorporation under pre-steady-state conditions; type: biochemical; conditions: D38/25PGA, 80 μM dTTP
Description: as §4, with “Nucleotide incorporation reactions under pre-steady-state conditions were carried out with template-primer D38/25PGA, as described.” left out

[12] = target: T3, HIV-1 RT M41L/L210W/T215Y/R284K; experiment: as above; type: biochemical; conditions: D38/25PGA, 80 μM dTTP
Description: as §4, with “Nucleotide incorporation reactions under pre-steady-state conditions were carried out with template-primer D38/25PGA, as described.” left out

HIV-1 RT R284K = target: T4, HIV-1 RT R284K (Human immunodeficiency virus type 1 group M subtype B, UniProt P03366, R883K); experiment: Kinetics of ATP-dependent excision from DNA/DNA template-primers (single turnover); type: biochemical; conditions: R284K RT 210 nM, 3.2 mM ATP, terminated 26-mer primer on 38-nt DNA template 30 nM
T4 construct: His6 (C); made in house; host or cells: E. coli XL1 Blue
Description: (§5) The primer 25PGA was blocked at its 3´ end with d4TTP using terminal deoxynucleotidyltransferase (Roche), and excess nucleotides were eliminated by repeated passage through a mini Quick Spin column (Roche). The blocked primer was then labeled with [γ-^32P]ATP and T4 polynucleotide kinase and annealed to the DNA template D38, in order to obtain the template-primer D38/25PGA^d4T, used in the excision reactions. […] For this purpose, we preincubated the template-primer D38/^32P]25PGA (4.6 μM) with HIV-1BH10 RT (4 μM) in 65 μl of 50 mM Hepes pH 7.0 buffer, containing 15 mM NaCl, 15 mM magnesium acetate, 130 mM potassium acetate, 1 mM dithiothreitol, and 5% polyethylene glycol for 10 minutes at 37°C. Then, 35 μl of 6 mM AZTTP (diluted in the preincubation buffer) were added and incubated for another 30 minutes at 37°C to ensure that the primer was blocked completely. The RT was inactivated by heating the mixture for 10 minutes at 90°C. After slowly cooling the sample at room temperature, it was passaged several times through a mini Quick Spin column (Roche) to eliminate the free AZTTP. […] The excision of d4T monophosphate (d4TMP) from D38/25PGA^d4T was determined under single turnover conditions, as previously described.

[13] = target: T2, HIV-1 RT M41L/L210W/T215Y; type: biochemical; conditions: M41L/L210W/T215Y RT 210 nM, 3.2 mM ATP, terminated 26-mer primer on 38-nt DNA template 30 nM
Description: as §5

WT HIV-1 RT = target: T5, WT HIV-1 RT (Human immunodeficiency virus type 1 group M subtype B, UniProt P03366); type: biochemical; conditions: WT RT 210 nM, 3.2 mM ATP, terminated 26-mer primer on 38-nt DNA template 30 nM
T5 construct: His6 (C); made in house; host or cells: E. coli XL1 Blue
Description: as §5

[14] = target: T3, HIV-1 RT M41L/L210W/T215Y/R284K; type: biochemical; conditions: M41L/L210W/T215Y/R284K RT 210 nM, 3.2 mM ATP, terminated 26-mer primer on 38-nt DNA template 30 nM
Description: as §5

[15] = Human immunodeficiency virus 1, MT4, average ± SD of at least three tests

Nc1nc(=O)n([C@@H]2CS[C@H](CO)O2)cc1F [Emtricitabine]
fold increase in IC50 relative to the wild-type HXB2 virus control [1]: 1.6
IC50 [1, 15]: 227 ± 113 nM
IC50 ([2]; Human immunodeficiency virus 1, HXB2, MT4, WT virus): 144 ± 69.9 nM
fold increase in IC50 relative to the wild-type HXB2 virus control [3]: 0.7
IC50 [3, 15]: 104 ± 81.5 nM
fold increase in IC50 relative to the wild-type HXB2 virus control [4]: 2.0
IC50 [4, 15]: 295 ± 93.7 nM

Cc1cn([C@H]2C[C@H](N=[N+]=[N-])[C@@H](CO[P@](=O)(O)O[P@](=O)(O)OP(=O)(O)O)O2)c(=O)[nH]c1=O [AZTTP]
Ki (WT HIV-1 RT (BH10) [5]): 2100 ± 380 nM
Ki [6]: 2180 ± 170 nM
Ki [7]: 2320 ± 740 nM

CC(C)OC(=O)OCOP(=O)(CO[C@H](C)Cn1cnc2c(N)ncnc21)OCOC(=O)OC(C)C.O=C(O)/C=C/C(=O)O [Tenofovir, tenofovir disoproxil fumarate]
fold increase in IC50 relative to the wild-type HXB2 virus control [1]: 1.6
IC50 ([1]; M41L/L210W/T215Y virus, average ± SD of at least three tests): 11 ± 4.6 nM
IC50 ([2]; WT virus): 6.7 ± 2.2 nM
fold increase in IC50 relative to the wild-type HXB2 virus control [3]: 1.8
IC50 ([3]; R284K virus, average ± SD of at least three tests): 12.1 ± 5.3 nM
fold increase in IC50 relative to the wild-type HXB2 virus control [4]: 2.7
IC50 ([4]; M41L/L210W/T215Y/R284K virus, average ± SD of at least three tests): 18.1 ± 4.4 nM

Cc1cn([C@H]2C[C@H](O)[C@@H](COP(=O)(O)OP(=O)(O)OP(=O)(O)O)O2)c(=O)[nH]c1=O [dTTP]
Km (WT HIV-1 RT (BH10) [8]): 0.108 ± 0.0129 µM
kcat (WT HIV-1 RT (BH10) [8]): 0.0523 ± 0.00917 s⁻¹
Km [9]: 0.117 ± 0.0219 µM
kcat [9]: 0.0588 ± 0.0015 s⁻¹
Km [10]: 0.184 ± 0.0061 µM
kcat [10]: 0.0943 ± 0.00383 s⁻¹
nucleotide incorporation rate (kobs) [11]: 21.5 ± 4.4 s⁻¹
nucleotide incorporation rate (kobs) [12]: 38.8 ± 9.4 s⁻¹

Cc1cn([C@H]2C[C@H](N=[N+]=[N-])[C@@H](COP(=O)(O)O)O2)c(=O)[nH]c1=O [AZTMP]
kobs of ATP-dependent excision reaction (HIV-1 RT R284K): 0.00242 ± 0.000122 min⁻¹
kobs of ATP-dependent excision reaction [13]: 0.0469 ± 0.00169 min⁻¹
kobs of ATP-dependent excision reaction (WT HIV-1 RT): 0.00282 ± 0.000148 min⁻¹
kobs of ATP-dependent excision reaction [14]: 0.0364 ± 0.00308 min⁻¹
